Data set [1] concerns mice. Briefly: Histamine-induced pruritus. It is filed as in vivo. Conditions: 10 mg/kg, 60 min observation (control 62.11 ± 9.4). How it is done:
Intradermal injection of histamine induced scratching bouts in the amount of 62.11 ± 9.4. […].
(§1) The surface (around 2 cm^2) of the mice’s nape was shaved at least 2 days prior to experiments. On the day of the experiment, mice were individually placed in plastic chambers (15 × 15 × 30 cm) and after the 30 min habituation period, they were given an intradermal (i.d.) injection of histamine dihydrochloride (10 µmol/site) or chloroquine (CQ, 200 µg/site), which were dissolved in physiological saline and administrated in the constant volume of 20 μL. Immediately after the injection, scratching (series of movements considered as a single scratching bout) of the injected site by the hind paw was counted for 60 min or 30 min after histamine and CQ administration, respectively. Before pruritogens injection different groups of mice were treated i.p. with vehicle (10 mL/kg, negative control) or the dose–response of investigated compound.
(§2) Figure 9 The effect of compound 6 and reference compound pyrilamine (Pyr) on the number of scratching bouts during 60 min-long observation in histamine-induced pruritus (A) and 30 min-long observation in chloroquine-induced pruritus (B). The tested compound or vehicle (1% solution of Tween 80) was administered intraperitoneally (i.p.) 30 min before the intradermal (i.d.) injection of histamine or chloroquine. The results are presented as bar plots showing the mean ± SEM. Statistical analysis: one-way ANOVA followed by Dunnett’s post hoc test, * p < 0.05, ** p < 0.01, *** p < 0.001, n = 8–10 mice per group.

For data set [2], the system named is mice. Briefly: Chloroquine-induced pruritus. It is filed as in vivo. Conditions: 10 mg/kg, 30 min observation.
Source text: When comparing the activity of the tested in both used models, it should be noted that the efficacy (higher maximal effect) and potency (lower doses needed to obtain the same result) of the compound were better in histamine-induced pruritus. Nevertheless, compound 6 was also active in histamine-independent itch, which contrasts with the activity of pyrilamine representing a commonly used drug in the treatment of pruritus. […] The wide spectrum of antipruritic activity of compound 6 is very promising, considering that histamine-independent itch is still a crucial clinical problem in pruritus treatment.
as §1, §2

Data set [3] in a line: PAMPA assay (blood-brain barrier permeability). It is filed as in vitro ADME. The settings on record: 200 µM, 5 h. How it is done:
This test is a popular method for estimating the possibility of crossing BBB through passive transport. […] Caffeine was used as a standard well-permeable compound.
The Gentest^TM PAMPA Plate System, purchased from Corning (Tewksbury, MA, USA), was used for permeability evaluation. Caffeine (a reference) and the compound tested were dissolved in DMSO (10 mM stocks) and after dilution to 200 μM in PBS (pH 7.4), added to donor wells. Then, after incubation for 5 h at room temperature, concentrations of tested compounds in donor and acceptor wells were estimated by the mass spectra (LC/MS) method as described previously. The UPLC/MS Waters […] TQD system with the TQ Detector (Waters, Milford, CT, USA) was used for this detection. The assay was performed in triplicate. The permeability value (Pe) was calculated using the formula described by Chen et al..
In general terms: In PAMPA a lipid-coated filter parts donor from acceptor wells.

The target in data set [4] is T1, human histamine H4 receptor (Homo sapiens, UniProt Q9H3N8).
T1 construct: made in house; host or cells: Sf9 cells (membrane preparations)
T1 sequence (Q9H3N8 whole entry): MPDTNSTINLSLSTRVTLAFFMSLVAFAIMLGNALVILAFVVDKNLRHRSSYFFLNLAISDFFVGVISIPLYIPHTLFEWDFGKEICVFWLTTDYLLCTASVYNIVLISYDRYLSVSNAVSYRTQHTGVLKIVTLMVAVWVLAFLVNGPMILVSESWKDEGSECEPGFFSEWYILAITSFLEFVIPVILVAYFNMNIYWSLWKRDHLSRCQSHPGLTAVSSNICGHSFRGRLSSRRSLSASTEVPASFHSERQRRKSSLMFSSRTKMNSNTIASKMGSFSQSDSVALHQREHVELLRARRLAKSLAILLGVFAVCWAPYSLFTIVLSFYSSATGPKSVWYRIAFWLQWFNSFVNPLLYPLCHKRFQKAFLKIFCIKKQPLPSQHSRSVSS
Conditions: ref 57 (Grosicki et al.); read-out: hH4R Ki; cited from earlier work.

The target of data set [5] is T2, hH4R (Homo sapiens, UniProt Q9H3N8). Briefly: cAMP accumulation assay (LANCE Ultra cAMP, CHO-K1 cells stably expressing hH4R). The settings on record: for IC50: antagonist mode, forskolin 10 µM, histamine 140 nM, CHO-K1 hH4R cells, read-out: cAMP hH4R IC50 ± SEM; for Kb: calculated from IC50 by Leff–Dougall variant of Cheng–Prusoff equation, read-out: pKb cAMP ± SEM (converted). It is filed as cell-based. Also on record: expressed in transfected cells. How it is done:
Intrinsic activity via the Gα subunit was measured using a LANCE Ultra cAMP detection kit and CHO-K1 cells stably expressing hH4R. Adenyl cyclase was stimulated by forskolin (10 µM).
Intrinsic activity in G protein-dependent pathway was measured with homogenous TR-FRET immunoassay, using LANCE Ultra cAMP kit and CHO-K1 H4R cell line or γ-irradiated recombinant CHO-K1 H4R cells (all from PerkinElmer). […] If the CHO-K1 H4R cell line was used it had been cultivated in DMEM/F12 10% FBS 400 µg/mL geneticin and passaged three times a week. […] The antagonist activity was measured in a white, opaque, 384-well microplate (PerkinElmer) with a total volume of 20 µL. […] After incubation, 5 µL of europium chelate-labelled cAMP tracer and 5 µl of ULight-labelled anti-cAMP mAb working solutions were added, mixed and incubated for 1 h. TR-FRET signal was read using a microplate reader (PerkinElmer, Waltham, MA, USA).

In data set [6] the target is T2, hH4R. The data set is described as above. Conditions: antagonist mode. It counts as cell-based. Also on record: expressed in transfected cells.
Data set [7] addresses T2, hH4R. Briefly: β-arrestin recruitment assay (LiveBLAzer, Tango-H4-bla U2OS cells). It counts as cell-based. On the set-up: expressed in transfected cells; host or cells: Tango-H4-bla U2OS cells. Conditions: for IC50 / β-arrestin hH4R % of max. Antagonist Activity at 10 µM: antagonist mode; for IC50: histamine 500 nM (EC80), Tango-H4-bla U2OS cells, read-out: β-arrestin hH4R IC50 ± SEM; for Kb: calculated from IC50 by Leff–Dougall variant of Cheng–Prusoff equation, read-out: pKb β-arrestin ± SEM (converted). How it is done:
Compounds were tested using LiveBLAzer^TM assay and Tango-H4-bla U2OS cells, allowing the estimation of the percentage of β-arrestin recruitment in response to tested treatments.
All used media and reagents except DMSO and tested compounds were purchased from ThermoFisher Scientific, Waltham, MA, USA. DMSO was from CarlRoth (Karlsruhe, Germany) and histamine was from Sigma Aldrich (Darmstadt, Germany). […] The day before the experiment cells were collected from the culture flask with trypsin and seeded in 384 well black-wall, clear-bottom plate (PerkinElmer, Waltham, MA, USA) in concentration 10,000 cells/well in FreeStyle medium. After 24 h of incubation, the cells were checked under the microscope and the dilutions of tested compounds were prepared and added to the wells. In agonist mode compounds were added to the wells and plates were placed in the incubator (HERAcell240, Heraeus, Hanau, Germany) for 16 h. In antagonist mode, first, the compounds were added to the wells, plates were incubated for 30 min, then histamine solution (corresponding to EC80—500 nM) was added and plates were put in the incubator for 16 h. After this time β-lactamase substrate mixture was prepared and added to wells (8 µL/well). Cells were incubated for 2 h at room temperature in the dark then the signal was read using an EnSpire microplate reader (PerkinElmer, Waltham, MA, USA). Drawing of dose-dependent curves and IC50 calculation for compounds were made using GraphPad Prism 6 (GraphPad Software, San Diego, CA, USA).

Data set [8] addresses T1, human histamine H4 receptor. Briefly: [3H]histamine displacement assay, membranes of Sf9 cells expressing hH4R with Gαi2 and Gβ1γ2. The settings on record: Sf9 membranes, mean within 95% CI. It counts as binding. How it is done: The affinity of compounds 2–20 for hH4R was evaluated in a binding assay as previously described. [^3H]Histamine was used as a radioligand and hH4R was expressed in Sf9 cells with G protein Gαi2 and Gβ1γ2 subunits. The pharmacological results represented as Ki values are listed in Table 1 (for alicyclic derivatives) and Table 2 (for aliphatic derivatives). […] Results depended on the substituent in the four positions of a triazine (a main structure).
Affinities of all triazine derivatives were determined in a [^3H] histamine (f.c. 10 nM) displacement assay using membrane preparations from Sf9 cells expressing human H4R and co-expressed with Gαi2 and Gβ1γ2 subunits as described previously. Nonspecific binding was determined in the presence of unlabelled JNJ7777120 ([…]).

The values that follow come from article PMC10224356, “Trisubstituted 1,3,5-Triazines as Histamine H4 Receptor Antagonists with Promising Activity In Vivo” (Molecules, 2023).

The term melting point denotes the temperature of the solid-liquid transition. One may read the Ki as the dissociation constant of the complex between target and ligand, obtained from inhibition or displacement. One may read the IC50 as the concentration that inhibits the measured activity by half.

Molecules are shown by their SMILES. “And” between values parts separate entries of the source, which are not always exact repeats. Equal values may be shown once. Read-outs that look alike come from different tables or passages of the source.

T2 sequence (Q9H3N8 whole entry): as above

On to `COc1ccc(CN(CCN(C)C)c2ccccn2)cc1` [pyrilamine, reference compound], for which, in data set [1], the “Number of scratch bouts, histamine-induced pruritus” value came to 28.56 ± 3.55 scratch bouts. For the same compound, the “Effect on scratching behaviour, chloroquine-induced pruritus” value in data set [2] is reported as “did not significantly reduce scratching behaviour”.
For `Cn1c(=O)c2c(ncn2C)n(C)c1=O` [Caffeine], the “Mass Retention (R)” value in data set [3] and in [3] (listed as caffeine) was 1.54% each time. In data set [3] (PBS pH 7.4, permeable if Pe > 1.5 × 10^−6 cm/s), the “Pe (permeability coefficient) ± SD” value is on record as 9.78 ± 1.75 10^−6 cm/s.
The compound `CN1CCN(c2nc(N)nc(CC3=CCCCC3)n2)CC1` [Compound 8, 4-(Cyclohexenylmethyl)-6-(4-methylpiperazin-1-yl)-1,3,5-triazin-2-amine] showed a melting point of 149 to 153 °C. The Ki in data set [4] was 4700 nM. For the same compound, in [5], the IC50 worked out at 743 ± 30 nM and the Kb is 263 nM. In data set [6], the “cAMP hH4R % of max. Antagonist Activity at 10 µM” value (from here on “cAMP hH4R %”) came to 98%. Further, in [7], the IC50 amounted to 41 ± 6 nM, the “β-arrestin hH4R % of max. Antagonist Activity at 10 µM” value (“β-arrestin hH4R %” below) is 102% and the Kb is 6.76 nM.
`CN1CCN(c2nc(N)nc(C3CCC3)n2)CC1` [Compound 3, 4-Cyclobutyl-6-(4-methylpiperazin-1-yl)-1,3,5-triazin-2-amine] yielded a melting point of 127 to 132 °C. Besides, the inhibitory constant (Ki) in [8] was ~200 nM and 200 nM. Also, in data set [5], the IC50 turned out to be 104 ± 17 nM and the Kb is 37.2 nM. For the same compound, the “cAMP hH4R %” value in [6] is listed as 109%. In [7], the half-maximal inhibitory concentration (IC50) stood at 100 ± 15 nM, the “β-arrestin hH4R %” value turned out to be 87% and the Kb is 16.6 nM.
As to `CC(C)CCc1nc(N)nc(N2CCN(C)CC2)n1` [Compound 14, 4-Isopentyl-6-(4-methylpiperazin-1-yl)-1,3,5-triazin-2-amine], the melting point is 123 to 126 °C. Further, the inhibitory constant (Ki) in [8] stood at 203 nM. In [5], the IC50 stood at 43 ± 17 nM and the Kb was 13.8 nM. The “cAMP hH4R %” value in data set [6] is given as 107%. In [7], the IC50 was found to be 24 ± 3 nM, the “β-arrestin hH4R %” value turned out to be 101% and the Kb is 3.89 nM.
Take `CCC(C)Cc1nc(N)nc(N2CCN(C)CC2)n1` (stereo not shown) [Compound 12, 4-(2-Methylbutyl)-6-(4-methylpiperazin-1-yl)-1,3,5-triazin-2-amine]: the melting point fell in the range of 115 to 116 °C. Further, the Ki in data set [8] was determined as 321 nM. Moreover, in [5], the IC50 was determined as 132 ± 9 nM and the Kb is 46.8 nM. Also, in data set [6], the “cAMP hH4R %” value turned out to be 111%. In data set [7], the IC50 amounted to 38 ± 7 nM, the “β-arrestin hH4R %” value was 100% and the Kb is 6.17 nM.
